ChEMBL document CHEMBL3102791, “Synthesis and biological evaluation of 2-aminothiazole derivatives as antimycobacterial and antiplasmodial agents” (Bioorg Med Chem Lett, 2014)

Tests used:
Conditions in all cases: read-out: Stability
[1] = Metabolic stability in BALB/c mouse liver microsomes assessed as compound remaining at 1 uM after 30 mins by HPLC-MS/MS analysis; type: ADME, Microsome
[2] = Metabolic stability in rat liver microsomes assessed as compound remaining at 1 uM after 30 mins by HPLC-MS/MS analysis; type: ADME
[3] = Metabolic stability in human liver microsomes assessed as compound remaining at 1 uM after 30 mins by HPLC-MS/MS analysis; type: ADME

| Compound | remaining at 0.5 h, 1 µM [1] | remaining at 0.5 h, 1 µM [2] | remaining at 0.5 h, 1 µM [3] |
| --- | --- | --- | --- |
| N#Cc1ccc(C(=O)Nc2nc(-c3ccccn3)cs2)cc1 | 1.61% | 64.6% | 24.1% |
| O=C(Nc1nc(-c2ccccn2)cs1)c1ccc(Cl)cc1 | 1.33% | 42.1% | 8.4% |
| O=C(Nc1nc(-c2ccccn2)cs1)c1ccc(F)cc1 | 3.61% | 72.1% | 14.2% |
| O=C(Nc1nc(-c2ccccn2)cs1)c1cccc(Br)c1 | 82.4% | > 99% | > 99% |

Results, then the compound that gave them:

| remaining at 0.5 h, 1 µM [1] | remaining at 0.5 h, 1 µM [2] | remaining at 0.5 h, 1 µM [3] | Compound |
| --- | --- | --- | --- |
| 3.71% | 47.8% | 53.8% | O=C(Nc1nc(-c2ccccn2)cs1)c1ccncc1 |
| 7.6% | 54.5% | 27.5% | O=C(Nc1nc(-c2ccccn2)cs1)c1ccccc1 |
